In data set [1] the test system is HES1 mRNA. The data set is described as follows: HES1 mRNA by RT-qPCR, VTC-037 GSCs. The data set is classed as cell-based, human. Particulars: 50 μM, 24 h, compared to antennapedia alone or JM2-scrambled. As to the method: (§1) RNA was extracted using the PureLink^TM RNA mini extraction kit (Thermo Fisher) and on-column DNA digestion was completed using PureLink^TM DNase according to the manufacturer’s instructions. RNA was reverse transcribed to generate cDNA using the iScript^TM Reverse Transcription SuperMix for RT-qPCR kit (Bio-Rad Laboratories). Real-time PCR was performed using the SYBR select Master Mix for CFX (Thermo Fisher) in hard-shell 96-well PCR plates (Bio-Rad Laboratories) on a CFX Connect Real Time System (Bio-Rad Laboratories). Primer sequences used were: hNOTCH1_Fwd: 5’-CGCACAAGGTGTCTTCCAG-3’; hNOTCH1_Rev: 5’-CGGCGTGTGAGTTGATGA-3’; hHES1_Fwd: 5’-GGCTGGAGAGGCGGCTAA-3’; hHES1_Rev: 5’-[…]-3’; hHEY1_Fwd: 5’-[…]-3’; hHEY1_Rev: 5’-[…]-3’.

Data set [2] relates to normal human astrocytes. Put plainly: Caspase 3/7 activity, human astrocytes. The data set is classed as cell-based. Conditions: 100 μM, 2 days. How it is done:
(§2) Cells were plated in 96-well plates (2000–5000 cells per well) and treated the following day with TMZ (10, 50, or 100 μM), antennapedia, JM2-scrambled, or JM2 (10, 50, or 100 μM). After 4 days, cell viability was monitored following addition of MTS reagent (Promega) according to manufacturer’s instructions. The absorbance at 490 nm was measured using a SpectraMax i3 or iD3 microplate reader (Molecular Devices). For the caspase 3/7 activity assay, cells were plated in 96-well plates (2000 cells per well) and treated with TMZ or peptides as described above. The activity of caspase 3/7 was measured after 48 h using the Caspase-Glo® 3/7 assay (Promega) following the manufacturer’s instructions. Fold change of caspase 3/7 activity was defined as the ratio of caspase 3/7 luminescence in treated cells compared to controls.

Data set [3] concerns VTC-034 GSCs. Put plainly: Gliosphere formation assay, VTC-034 GSCs. Type of data set: cell-based, human. Conditions: VTC-034, 10, 50 or 100 μM every other day, 2 weeks. As to the method: (§3) GSCs and PDX GBM22 cells were plated as single cell suspension in low-attachment 96-well plates (GSCs: 100–500 cells per well; GBM22 cells: 500–2000 cells per well), using methods similar to those reported previously. Cells were then treated with peptides every other day. 2 weeks later, gliospheres were observed using phase contrast microscopy on a Revolve microscope (Echo Laboratories). The number of gliospheres was then determined, while the gliosphere size was assessed by diameter measurement. To evaluate stem cell frequency in GSCs, gliosphere formation assay was performed with limiting cell dilutions with cells plated at varying densities in low-attachment 96-well plates. Cells were treated with peptides every other day, and after 2 weeks, gliosphere-positive wells were observed and scored using phase contrast microscopy on a Revolve microscope. The stem cell frequency was analyzed using the online data analysis program ELDA (Extreme Limiting Dilution Analysis).

Data set [4] has as its system HES1 mRNA. The data set is described as follows: HES1 mRNA by RT-qPCR, VTC-001 GSCs. The data set is classed as cell-based, human. Particulars: 50 μM, 24 h, compared to antennapedia alone. As to the method:
as §1

In data set [5] the test system is Cx43. Conditions: prior work with JM2; ref [41]; cited from earlier work. The source says: Using JM2, a Cx43 mimetic peptide of Cx43 tubulin-binding domain, we confirm efficient and specific disruption of Cx43-microtubule interaction in GSCs together with decreased self-renewal abilities and enhanced killing of this cancer stem-like cell population, highlighting a novel tumorigenic role for Cx43 in GSCs, and GBM. Thermal shift assays reveal JM2 presents high affinity for both α- and β- tubulin. While chemotherapeutic drugs such as paclitaxel have been used to target microtubule functions as therapeutic agents, many of these therapeutic agents cause significant side-effects. M ...

The subject of data set [6] is Notch1 mRNA. The data set is described as follows: Notch1 mRNA by RT-qPCR, VTC-037 GSCs. Type of data set: cell-based, human. Conditions: 50 μM, 24 h. How it is done:
as §1

The subject of data set [7] is HEY1 mRNA. Put plainly: HEY1 mRNA by RT-qPCR, VTC-037 GSCs. Conditions: 50 μM, 24 h, compared to JM2-scrambled. Type of data set: cell-based, human. How it is done: as §1
The test system of data set [8] is VTC-037 GSCs. Put plainly: Gliosphere formation assay, VTC-037 GSCs. Particulars: VTC-037, 10, 50 or 100 μM every other day, 2 weeks. Type of data set: cell-based, human. How it is done:
as §3

The subject of data set [9] is VTC-001 GSCs. Put plainly: Limiting dilution analysis (ELDA), VTC-001 GSCs. Type of data set: cell-based, human. Conditions: VTC-001, 100 μM every other day, 2 weeks; compared to JM2-scrambled or control. As to the method:
as §3
(§4) All quantification was performed on experiments repeated at least three times. Statistical analysis was conducted with GraphPad Prism (GraphPad Software). Data were analyzed for significance using Student’s t test, one-way ANOVA with Tukey’s multiple comparisons test, and presented as mean ± SD. […] Statistical significance between experimental groups was determined using chi-square (χ²) tests within the ELDA framework. […]

The subject of data set [10] is VTC-037 GSCs. Put plainly: MTS viability, VTC-037 GSCs. The data set is classed as cell-based, human. Conditions: 4 days. How it is done:
as §2

Data set [11] concerns VTC-034 GSCs. The data set is described as follows: Limiting dilution analysis (ELDA), VTC-034 GSCs. Type of data set: cell-based, human. Particulars: VTC-034, 100 μM every other day, 2 weeks; compared to JM2-scrambled or control. How it is done:
as §3, §4

The test system of data set [12] is VTC-037 GSCs. The data set is described as follows: Limiting dilution analysis (ELDA), VTC-037 GSCs. Type of data set: cell-based, human. Particulars: VTC-037, 100 μM every other day, 2 weeks; compared to JM2-scrambled or control. As to the method:
as §3, §4

The test system of data set [13] is normal human astrocytes. Put plainly: MTS viability, human astrocytes. The data set is classed as cell-based. Conditions: 100 μM, 4 days. As to the method:
as §2

Entries after “also recorded” stand apart in the source; their conditions may differ.

Turning to VFFKGVKDRVKGRSD [JM2], the “Hes1 mRNA expression” value in data set [1] is “significantly decreased the expression of Notch downstream targets Hes1 and Hey1 at the transcription level”; in data set [4] it was “significantly decreased the expression of Notch downstream targets Hes1 and Hey1 at the transcription level”. In data set [2], the “Caspase 3/7 activity in normal human astrocytes” value is listed as “No effect on caspase 3/7”. Also, the GSC-dependent gliosphere formation entry in [3] is “inhibits VTC-001, VTC-034, and VTC-037 GSC-dependent gliosphere formation in a dose-dependent manner”; in data set [8] it was “inhibits VTC-001, VTC-034, and VTC-037 GSC-dependent gliosphere formation in a dose-dependent manner”. The “Gliosphere size (diameter)” value in [3] (n = 4) and in data set [8] (n = 4) was “significant decrease in gliosphere size” in each case. Moreover, the Gliosphere number result in data set [3] (n = 6) is “significant decrease in gliosphere size as assessed by diameter measurement (Fig. 6B), and number”; in [8] (n = 6) it was “significant decrease in gliosphere size as assessed by diameter measurement (Fig. 6B), and number”. Besides, in data set [5], the “Cx43 delivery to the cell surface” value is listed as “a loss of Cx43 delivery to the cell surface due to increased Cx43/tubulin complexing”. Besides, the “Notch1 mRNA level” value in data set [6] is reported as “not affected at the transcription level”. Besides, in [7], the “Hey1 mRNA expression” value was “significantly decreased the expression of Notch downstream targets Hes1 and Hey1 at the transcription level”. For the same sequence, the “GSC frequency / self-renewal (limiting dilution)” value was “significant decrease in VTC-001, VTC-034, and VTC-037 GSC frequency” in [9]; “significant decrease in VTC-001, VTC-034, and VTC-037 GSC frequency” in [11]; “significant decrease in VTC-001, VTC-034, and VTC-037 GSC frequency” in data set [12]. Besides, in data set [10] (VTC-037 adherent GSCs, 100 μM), the “GSC viability with JM2 alone in combination experiment (MTS)” value is “significantly decreased GSC viability”. In addition, the “GSC survival (MTS)” value in data set [10] (VTC-037 adherent GSCs, 10, 50 or 100 μM) is “significantly decreased VTC-001, VTC-034, and VTC-037 GSC survival when cultured as adherent cells in a dose-dependent manner”. Also, the “Human astrocyte viability (MTS)” value in data set [13] is recorded as “did not observe a decrease in human astrocyte viability, even at higher JM2 concentrations; also recorded: no toxic effect of JM2 on normal human astrocytes in vitro”.

The record behind these values is publication PMC12084297, “Cytoplasmic connexin43-microtubule interactions promote glioblastoma stem-like cell maintenance and tumorigenicity” (Cell Death & Disease, 2025).
